Reference: patent publication US6369236B1, “Imidazole derivatives with biphenylsulfonyl substitution method for preparing them and their use as a drug or diagnostic agent” (Aventis Pharma Deutschland GmbH, priority 1998, dated 2002)

Key:
[1] = tested on: Na+-dependent Cl-/HCO3- exchanger (NCBE); experiment: Inhibition of the Na+-dependent Cl-/HCO3- exchanger (NCBE) in human endothelial cells (BCECF fluorescence, FLIPR, pHi recovery); assay type: cell-based; conditions: inhibitor concentration 10 μM; human endothelial cells (ECV-304); 50 μM HOE 642 present; 35° C., 2 minutes
Procedure: Inhibition of the Na^+-dependent Cl^−/HCO3^− Exchanger (NCBE) in Human Endothelial Cells
Human endothelial cells (ECV-304) were detached from culture bottles with the aid of trypsin/EDTA buffer (0.05/0.02% in phosphate buffer) and, after centrifugation (100 g, 5 min), taken up in a buffered salt solution (mmol/l: 115 NaCl, 20 NH4Cl, 5 KCl, 1 CaCl2, 1 MgSO4, 20 N-(2-hydroxyethyl)piperazine-N-2-ethanesulfonic acid (HEPES), 5 glucose and 1 g/l of bovine serum albumin; pH 7.4). This cell suspension was incubated at 37° C. for 20 min with 5 μM BCECF-acetoxymethyl ester. The cells were then washed and resuspended in a sodium- and bicarbonate-free buffer solution (mmol/l: 5 HEPES, 133.8 choline chloride, 4.7 KCl, 1.25 MgCl2, 0.97 K2HPO4, 0.23 KH2PO4, 5 glucose; pH 7.4).
For subsequent fluorescence measurement in an FLIPR (Fluorescent Imaging Plate Reader) 100 μl of this cell suspension having 20,000 cells in each case were pipetted per well into a 96-well microtiter plate and this microtiter plate was centrifuged (100 g, 5 min).
In the FLIPR, 100 μl of buffer solution in each case were then removed from a further pretreated microtiter plate and pipetted into each of the 96 wells of the measurement plate. A bicarbonate- and sodium-containing buffer solution (mmol/l: 5 HEPES, 93.8 NaCl, 40 NaHCO3, 4.7 KCl, 1.25 CaCl2, 1.25 MgCl2, 0.97 Na2HPO4, 0.23 NaH2PO4, 5 glucose; pH 7.4) which contained 50 μM HOE 642 was used for a 100% control, i.e. a recovery of the intracellular pH (pHi) via the NCBE. For a 0% control, i.e. no pHi recovery at all, a bicarbonate-free, sodium-containing buffer solution (mmol/l: 5 HEPES, 133.8 NaCl, 4.7 KCl, 1.25 CaCl2, 1.25 MgCl2, 0.97 Na2HPO4, 0.23 NaH2PO4, 5 glucose; pH 7.4) was employed, to which 50 μM HOE 642 were likewise added. The compounds according to the invention were added to the sodium- and bicarbonate-containing solution in various concentrations.
After addition of the buffer solutions to the dye-loaded, acidified cells in the measurement plate, the rise in the fluorescence intensity, which corresponded to a rise in the pHi, in each well of the microtiter plate was determined. The kinetics were in this case recorded at 35° C. for a period of 2 minutes.
The increase in the fluorescence intensities for different concentrations of the compounds according to the invention was related to the two controls and from this the inhibitory action of the substances was determined.

| Compound | Residual activity of the NCBE at an inhibitor concentration of 10 μM (in %) [1] [%] | melting point |
| --- | --- | --- |
| COCCOc1nc(-c2ccccc2)n(Cc2ccc(-c3ccccc3S(=O)(=O)NC#N)cc2S(C)(=O)=O)c1C=O [Example 1, 4′-[5-Formyl-4-(2-methoxyethoxy)-2-phenylimidazol-1-ylmethyl]-3′-methanesulfonylbiphenyl-2-sulfonylcyanamide] | 9.8 | > 270 °C |
| COCCOc1nc(-c2ccccc2)n(Cc2ccc(-c3ccccc3S(=O)(=O)NC#N)cc2Cl)c1C=O [Example 2, 3′-Chloro-4′-[5-formyl-4-(2-methoxyethoxy)-2-phenylimidazol-1-ylmethyl]-biphenyl-2-sulfonylcyanamide] | 18.9 | 195 °C (dec.) |
| COCCOc1nc(-c2ccc(C(C)C)cc2)n(Cc2ccc(-c3ccccc3S(=O)(=O)NC#N)cc2)c1C=O [Example 3, 4′-[5-Formyl-2-(4-isopropylphenyl)-4-(2-methoxyethoxy)imidazol-1-ylmethyl]biphenyl-2-sulfonylcyanamide] | 29.6 | – |
| COCCOc1cc(-c2ccccc2S(=O)(=O)NC#N)ccc1Cn1c(-c2ccccc2)nc(OCCOC)c1C=O [Example 4, 4′-[5-Formyl-4-(2-methoxyethoxy)-2-phenylimidazol-1-ylmethyl]-3′-(2-methoxyethoxy)biphenyl-2-sulfonylcyanamide] | 13.5 | 162 °C |
